Series [1] has as its target T1, human MRGPRX2 (Homo sapiens, UniProt Q96LB1).
T1 construct: expressed in transfected cells; host or cells: CHO cells, stably transfected (G418 and Hygromycin B selection)
T1 sequence (Q96LB1 1-330): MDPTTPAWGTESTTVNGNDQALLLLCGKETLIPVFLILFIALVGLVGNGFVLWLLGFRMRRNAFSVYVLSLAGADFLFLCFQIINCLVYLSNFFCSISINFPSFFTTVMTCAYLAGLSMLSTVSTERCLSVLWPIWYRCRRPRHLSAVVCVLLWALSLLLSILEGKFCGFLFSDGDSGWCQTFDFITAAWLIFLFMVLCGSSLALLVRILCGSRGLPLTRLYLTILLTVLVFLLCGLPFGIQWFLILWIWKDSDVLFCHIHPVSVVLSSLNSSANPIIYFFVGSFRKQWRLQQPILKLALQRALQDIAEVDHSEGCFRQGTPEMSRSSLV
In words: MRGPRX2 activity: IP-One Gq HTRF assay in CHO cells, antagonism versus 0.3 uM Cortistatin-14. It is filed as cell-based. Conditions: versus 0.3 uM Cortistatin-14 agonist, CHO cells expressing human MRGPRX2, read-out: MRGPRX2 Antagonist Activity. An outline of the steps:
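CHO cells stably expressing human MRGPRX2 were treated with a 10-point compound curve (30 uM top, 1:3) plus 0.3 μM Cortistatin-14 in LiCl-containing Tris buffer, pH 8. Incubation was 1 h at 37 °C then 1 h at room temperature; IP-1 was detected by HTRF and IC50 came from the HTRF ratio.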

For series [2], the system named is Human LAD2 cells. The series can be described thus: Mast Cell Beta-Hexosaminidase Release Assay (LAD2 cells, 500 nM Cortistatin-14). Conditions: read-out: MRGPRX2 Antagonist Activity. It is filed as cell-based. Here is the method:
Human LAD2 cells (NIH) were maintained in an incubator at 37° C. with 5% CO2 and cultured in StemPro-34 serum-free media (Gibco 10639011) supplemented with 2 mM L-glutamine, 100 U/ml penicillin, […] streptomycin and 100 ng/ml SCF (Invitrogen PEP0860), at a concentration of 2-5×10^5 cells/mL, with hemidepletion every 1-2 weeks.
Cells were transferred to SCF-Free medium at 2.5×10^5 cells/mL and kept in an incubator overnight. On the day of the assay, cells were washed twice in Assay Buffer (final concentrations 10 mM HEPES, 137 mM NaCl, 5.6 mM D-glucose, 2.7 mM KCl, 1 mM MgCl, 1.8 mM CalCl2, 0.4 mM Na2HPO4·7H2O, 0.04% BSA, pH=7.4) and plated in a 96-well v-bottom plate at 20,000 cells per well in 80 μL Assay Buffer. Antagonist compounds solubilized at 10 mM in DMSO were diluted in Assay Buffer to 10× final desired concentrations as a 10-point curve (10 μM final top concentration with 1:3 serial dilutions) and 10 μL added per well. Plates were then incubated for 1 hour at 37° C. Agonists were diluted in Assay Buffer to 10× desired concentrations and 10 μL of the appropriate agonist added to each well. The final concentration of Cortistatin-14 (Tocris 3374) used in antagonist assays was 500 nM. Final concentrations of DMSO were kept consistent across the plate. Plates were then incubated in a warm air oven for 30 minutes at 37° C., followed by centrifugation at 4° C. for 5 minutes at 450×g. 50 μL supernatant from each well was then transferred to a 96-well flat bottom plate containing 100 μL substrate solution per well (3.5 mg/mL p-Nitrophenyl-N-acetyl-o-D-glucosaminide (Sigma 487052) in Citrate Buffer containing a final concentration of 40 mM Citric Acid, 20 mM Na2HPO4·7H2O, pH=4.5). To the cell pellets left in the remaining assay buffer, 150 μL 0.1% Triton-X-100 was then added to each well, resuspended by pipetting up and down, and 50 μL cell lysates transferred to a second 96-well flat bottom plate containing 100 μL substrate solution per well. Plates containing transferred supernatant and cell lysates were then incubated in a warm air oven for 90 minutes at 37° C. After incubation, 50 μL of 400 mM Glycine buffer (pH 10.7) was added into each well and the plate was read on a Molecular Devices SpectraMax iD5 plate reader (absorbance at 405 nm with reference filter at 620 nm). After background subtraction, the percentage degranulation (percent beta-hexosaminidase release) was calculated as 100×(supernatant values)/(supernatant+lysate values), followed by analysis using GraphPad Prism software to calculate an IC50 value for each compound.
The activity ranges are denoted as follows: “+++++” denotes antagonist activity <100 nM; “++++” denotes antagonist activity between 100 and 500 nM; “+++” denotes activity between 501 and 1000 nM; “++” denotes activity between 1001 and 2500 nM; and “+” denotes activity >2500 nM.

Series [3] is described as follows: Solubility Studies in FaSSIF, FeSSIF, FaSSGF (24 hours, room temperature, UPLC-UV). It is filed as physicochemical. Conditions: kinetic from dmso stock, 24 hours at room temperature. Here is the method:
Media according to Biorelevant Media protocols was prepared. 10 μL of 10 mM in DMSO stock solutions of test compounds was added to 96-well deep plate. 490 μL of FaSSIF, FeSSIF, or FaSSGF was then added into appropriate wells of 96-well deep plate. The plate was vortexed for 2 minutes then placed on a plate shaker for 24 hours at room temperature. The plate was centrifuged for 20 minutes, then supernatant was collected and filtered with […] syringe filter into UPLC vials for injection into UPLC-UV system. Concentration was calculated with a 3-point standard curve.

Series [4] in a line: Mouse Pharmacokinetic Studies (50 mg/kg oral gavage, plasma LC-MS/MS). Conditions: male C57BL/6 mice, non-fasted. It is filed as in vivo. The method, then:
Compounds were formulated in 5% DMSO, 5% Solutol, and 90% PBS without Ca and Mg (pH 7.4) at a concentration of […]. Male C57BL/6 mice (n=6/compound) were administered a 50 mg/kg dose of each compound by oral gavage under a non-fasted condition. Blood samples were collected via the Submandibular vein onto K2-EDTA at 0.5, 1, 2, 4, 8 and 24 hours after dosing, and plasma was prepared and stored at −80° C. until analysis. Plasma sample preparation for analysis was done by protein precipitation using acetonitrile (including Verapamil as an internal standard) followed by centrifugation. Compound concentrations were determined in extracted plasma using LC-MS/MS relative to a 12-point standard curve covering the 1 to 4000 nM range. Non-compartmental analysis using Phoenix WinNonlin was used to estimate pharmacokinetic parameters including area under the curve, clearance, and half-life. The administered dose was confirmed by analysis of residual dosing material by UPLC-UV relative to a single point calibration sample.

[5] abbreviates: Homo sapiens, LAD2, Mast Cell Beta-Hexosaminidase Release Assay.
Setting [6] is: fassgf or other biorelevant, solubility in FaSSGF, read-out: FaSSGF.
Setting [7] is: solubility in FaSSIF, read-out: FaSSIF.
[8] abbreviates: solubility in FeSSIF, read-out: FeSSIF.
[9] abbreviates: male, C57BL/6, mouse, po, 50 mg/kg.
[10] abbreviates: Mast Cell Beta-Hexosaminidase Release Assay.

These results are taken from patent publication US20250170141A1, “MRGPRX2 MODULATORS AND RELATED METHODS OF TREATMENT” (Escient Pharmaceuticals, Inc., priority 2023, published 2025).

A word on the Cmax: it is the peak of the concentration-time curve. For orientation: half-life means the time needed for the level to fall by half in the phase considered. Read a high half-life as slow loss.

SMILES strings stand for the structures. In brackets after ≈: the same amount, converted by molar mass. Like-named read-outs stand apart in the source and are kept apart here.

On to `O=S1(=O)N=C(NCc2ncccc2F)Nc2c(Oc3ccccc3Cl)cc(F)cc21` [Compound 1-264, 5-(2-chlorophenoxy)-7-fluoro-3-(((3-fluoropyridin-2-yl)methyl)amino)-4H-benzo[e][1,2,4]thiadiazine 1,1-dioxide], for which the IC50 in series [1] and in series [2] (setting [5]) was less than 100 nM throughout. Moreover, the solubility kinetic at 24 h in series [3] (setting [6]), in series [3] (setting [7]) and in series [3] (setting [8]) was less than 12.5 µM in each case. In series [4], this compound came in with a TBC of 32 mL/min/kg. Besides, the Cmax in series [4] (setting [9]) was 1.1 µM. Besides, the half-life in series [4] (setting [9]) was 3.8 h.

Turning to `O=S1(=O)N=C(NCc2ncccc2F)Nc2c1ccc(F)c2Oc1ccccc1Cl` [Compound 2-1, 5-(2-chlorophenoxy)-6-fluoro-3-(((3-fluoropyridin-2-yl)methyl)amino)-4H-benzo[e][1,2,4]thiadiazine 1,1-dioxide], the IC50 in series [1] was less than 100 nM; in series [2] (setting [5]), 100 to 500 nM. The solubility kinetic at 24 h in series [3] (setting [6]), in series [3] (setting [7]) and in series [3] (setting [8]) was less than 12.5 µM each time. The compound also showed a TBC in series [4] of 8.8 mL/min/kg. The same compound had a Cmax in series [4] (setting [9]) of 11 µM. The same compound had a half-life in series [4] (setting [9]) of 2.8 h.

Consider `CC(c1ccccc1F)c1c(F)ccc2c1NC(NCc1cccc(F)c1)=NS2(=O)=O` (single isomer, unassigned) [Compound 10-5B], for which the IC50 in series [1] and in series [2] (setting [10]) was less than 100 nM each time. Besides, the solubility kinetic at 24 h in series [3] (setting [6]) was less than 3.1 µM; in series [3] (setting [7]) it was 158 µM (≈ 70.4 µg/mL); in series [3] (setting [8]) it was 136 µM (≈ 60.6 µg/mL). The compound further gave a Cmax in series [4] (50 mg/kg) of 7.1 µM. This compound had a T1/2 in series [4] (50 mg/kg) of 2.5 h. In series [4] (50 mg/kg), this compound registered a TBC of 12 mL/min/kg.

Take `CC(c1ccccc1F)c1c(F)ccc2c1NC(NCc1cccc(F)n1)=NS2(=O)=O` (single isomer, unassigned) [Compound 10-2B]: the IC50 in series [1] and in series [2] (setting [10]) was less than 100 nM in each case. In addition, the solubility kinetic at 24 h in series [3] (setting [6]) is 11 µM (≈ 4.91 µg/mL); in series [3] (setting [7]), 162 µM (≈ 72.3 µg/mL); in series [3] (setting [8]), 186 µM (≈ 83 µg/mL). For the same compound, the TBC in series [4] (50 mg/kg) is reported as 27 mL/min/kg. The compound also came in with a Cmax in series [4] (setting [9]) of 4.4 µM. The compound further showed a half-life in series [4] (setting [9]) of 2.3 h.

`CC(c1ccc(F)cc1)c1c(F)ccc2c1NC(NCc1ncccc1F)=NS2(=O)=O` (single isomer, unassigned) [Compound 10-4B]: the IC50 in series [1] and in series [2] (setting [10]) was less than 100 nM throughout. Further, the solubility kinetic at 24 h is 3 µM (≈ 1.34 µg/mL) in series [3] (setting [6]), 23 µM (≈ 10.3 µg/mL) in series [3] (setting [7]) and 37 µM (≈ 16.5 µg/mL) in series [3] (setting [8]). Besides, the peak concentration (Cmax) in series [4] (50 mg/kg) was determined as 10 µM. For the same compound, the T1/2 in series [4] (50 mg/kg) amounted to 2.2 h. Moreover, the TBC in series [4] (50 mg/kg) stood at 12 mL/min/kg.

As for `CC(c1ccccc1F)c1c(F)ccc2c1NC(NCc1ncccc1F)=NS2(=O)=O` (stereo not shown) [Compound 9-1, 6-fluoro-5-(1-(2-fluorophenyl)ethyl)-3-(((3-fluoropyridin-2-yl)methyl)amino)-4H-benzo[e][1,2,4]thiadiazine 1,1-dioxide], the IC50 in series [1] and in series [2] (setting [5]) was less than 100 nM throughout. The values for the solubility kinetic at 24 h in series [3] (setting [6]), in series [3] (setting [7]) and in series [3] (setting [8]) were 19 µM (≈ 8.48 µg/mL), 114 µM (≈ 50.9 µg/mL) and 74 µM (≈ 33 µg/mL), respectively. In series [4], the TBC is reported as 13 mL/min/kg. This compound also registered a Cmax in series [4] (setting [9]) of 8.7 µM. In addition, in series [4] (setting [9]), the half-life is 1.8 h.

Regarding `C[C@@H](c1ccccc1F)c1c(F)c(F)cc2c1NC(NCc1ncccc1F)=NS2(=O)=O` [Compound 10-6A, (S)-6,7-difluoro-5-(1-(2-fluorophenyl)ethyl)-3-(((3-fluoropyridin-2-yl)methyl)amino)-4H-benzo[e][1,2,4]thiadiazine 1,1-dioxide], the IC50 in series [1] and in series [2] (setting [5]) was less than 100 nM throughout. Further, the results for the solubility kinetic at 24 h in series [3] (setting [6]), in series [3] (setting [7]) and in series [3] (setting [8]) were 27 µM (≈ 12.5 µg/mL), 30 µM (≈ 13.9 µg/mL) and 178 µM (≈ 82.7 µg/mL), respectively. In series [4], this compound had a TBC of 11 mL/min/kg. The compound also registered a maximum concentration (Cmax) in series [4] (setting [9]) of 11 µM. In series [4] (setting [9]), this compound gave a half-life of 2.1 h.

For `CC(c1ccccc1F)c1c(F)ccc2c1NC(NCc1ncccc1F)=NS2(=O)=O` (single isomer, unassigned) [Compound 10-1B], the IC50 in series [1] and in series [2] (setting [10]) was less than 100 nM each time. In addition, the solubility kinetic at 24 h was found to be 61 µM (≈ 27.2 µg/mL) in series [3] (setting [6]), 133 µM (≈ 59.4 µg/mL) in series [3] (setting [7]) and 200 µM (≈ 89.3 µg/mL) in series [3] (setting [8]). Besides, the highest concentration (Cmax) in series [4] (50 mg/kg) was 14 µM. Besides, the T1/2 in series [4] (50 mg/kg) was determined as 1.8 h. Also, the TBC in series [4] (50 mg/kg) came out at 9 mL/min/kg.
